The values that follow are results of earlier work, collected in US5370873A, “Therapeutic compounds derived from the neem tree” (priority 1992, dated 1994).

Where two headings read alike, the source gives them in different places.

Data set [1] deals with insect.
Assay in data set [2]: not given
The source holds these as a separate data set.

Data set [3] concerns murine P-388 lymphocytic leukemia cell line.
The conditions of data set [4]: in vivo.
Data set [5] relates to Plasmodium falciparum.

Regarding `C/C=C(\C)C(=O)O[C@H]1C[C@@H](OC(C)=O)[C@@]2(C(=O)OC)CO[C@H]3[C@@H](O)[C@@](C)([C@]45O[C@@]4(C)[C@H]4C[C@@H]5O[C@@H]5OC=C[C@@]54O)[C@H]4[C@]1(CO[C@]4(O)C(=O)OC)[C@@H]32` [azadiractin], the insect feeding repellency entry in data set [1] is recorded as “very potent insect feeding repellents”.
In the case of nimbidin, the “systemic toxicity in rats” value is “failed to demonstrate any systemic toxicity”. Besides, the “systemic toxicity in dogs” value in data set [2] is listed as “failed to demonstrate any systemic toxicity”.
With 1,2-diapoxyazadiradione, the “ED50, murine P-388 lymphocytic leukemia cell line” value in data set [3] is 8.5 mg.
For Neem oil, the “local or systemic side effects in human subjects” value in data set [4] and in data set [4] (po) was “no local or systemic side effects” throughout.
Consider 7-acetyl neotrichilenone, for which the “ED50, murine P-388 lymphocytic leukemia cell line” value in data set [3] is 10 mg.
With `CC(=O)O[C@@H]1C[C@H]2C(C)(C)C(=O)C=C[C@]2(C)[C@H]2CC[C@@]3(C)[C@H](c4ccoc4)OC(=O)[C@H]4O[C@]43[C@@]21C` [gedunin], in data set [5], the “inhibition of development of Plasmodium falciparum in vitro” value was “inhibit the development of the human malarial parasite Plasmodium falciparum in vitro”.
